Reference: patent US20220363848A1, “ANTIMICROBIAL MULTILAYER FILM” (Cryovac, LLC, priority 2019, published 2022)

System: microbes of beef purge inoculum
Experiment: Modified film test: total aerobic plate count after contact of inoculum with antimicrobial test film
Format: cell-based
Details: for Antimicrobial Performance vs. VLDPE Control (percent reduction in microbes), Amide wax alone Erucamide, Test 2: primary additive 10 wt % in Affinity PL 1280G1 C8-VLDPE containing 1664 ppm cis-13-docosenamide
Protocol: Each of the materials shown in Tables 1 and 2 was compounded into sealant resin, comprised of Affinity PL 1280G, a C8-VLDPE and films were prepared for microbial control testing. The primary additives were tested at 10 wt %. Secondary additives and Cis-13-docosenamide (sold under the trade name Erucamide) were tested as detailed in Table 3.
Test 2: Each of the primary antimicrobial materials in Table 1 was compounded at 10 wt % into sealant resin comprised of Affinity PL 1280G1, a C8-VLDPE containing 1664 ppm of cis-13-docosenamide and films were prepared for microbial control testing.
Tests 3-5: Each of the primary antimicrobial materials in Table 1 was compounded at 10% w/w into sealant resin comprised of Affinity PL 1280G, a C8-VLDPE and 2-3 wt % of the secondary antimicrobials (Table 2) or cis-13-docosenamide were added as detailed in Table 3 and films were prepared for microbial control testing.
Due to the limitations seen in the laboratory with the ISO 22196 test, a modified film test was developed. The test protocol was designed to simulate an actual package environment. […] “Purge” is the liquid that exudes from cut meat or poultry and collects freely in the package. This is typically found in larger packages. The purge liquid can be carefully removed from the packages and used for the following tests. For the tests conducted in this study, beef purge was used. The beef purge is a combination of water, fats, enzymes and meat proteins that drain from the meat. The purge also contains the same bacterial flora as that which contaminates the surface of the meat itself. Thus, this purge could include gram positive bacteria like Lactobacillus species, (Lactic Acid Bacteria), and Listeria species, as well as, gram negative bacteria like E. coli, Campylobacter or Salmonella species.
Antimicrobial films may contain the active ingredient extruded into the surface layer of the film, or coated onto the film. A test method was developed to provide a continuous, uniform coverage of a known amount of the inoculum on the test films.
A 1 inch by 3 inch “tape well” is created on the antimicrobial test film. The “tape well” is crafted by cutting a 1 inch by 3 inch section from a strip of 3 inch wide vinyl tape and applying the tape to the antimicrobial film surface. The test film is secured to a Lexan sheet for stability and handling.
To the well, 0.2 ml of an inoculum is added. The inoculums are either the meat purge or cultures of nutrient broth with E. coli (ATTC #4157 or ATTC #33876) added to the broth. The Escherichia coli is a gram-negative, facultative, anaerobic, rod-shaped, coliform bacterium.
A 1 inch by 3 inch strip of Cryovac brand D-955, a non-barrier film, is placed over the inoculum to provide complete wetting of the test film with the inoculum and to prevent desiccation of the inoculum. The high OTR properties of the D-955 allow growth of the inoculum trapped between the antimicrobial test film and the D-955 film.
Inoculated films are incubated at refrigerated conditions of 40° F. for both 1 and 5 days in a high humidity sealed pouch.
The inoculum is recovered from the well by both adding the inoculum wetted D-955 film over-layment to a distilled water test tube and by swabbing the test film surface twice and placing the swab in the same test tube.
The total aerobic plate count is enumerated using Aerobic Plate Count 3M Petri Film.
Results are reported as log10 CFU/g. The difference in counts between the sample and control is the “delta log CFU/g”. This is mathematically converted to a percent reduction=(1−10^(−delta log CFU/g))*100

[1] = 5 day test, beef purge inoculum, 40° F.

SMILES | Antimicrobial Performance vs. VLDPE Control (percent reduction in microbes), Amide wax alone Erucamide, Test 2 [1] [%] | Antimicrobial Performance vs. VLDPE Control (percent reduction in microbes), None Control, Test 1 (primary additive 10 wt % in Affinity PL 1280G C8-VLDPE sealant film, no secondary additive, 5 day test, beef purge inoculum, 40° F.) [%] | Antimicrobial Performance vs. VLDPE Control (percent reduction in microbes), Cleanatis M1 @ 2%, Test 4 (primary additive 10 wt % in VLDPE film plus 2 wt % Cleanatis M1 (With Amide wax), 5 day test, beef purge inoculum, 40° F.) [%] | Antimicrobial Performance vs. VLDPE Control (percent reduction in microbes), Cleanatis M2 @2%, Test 5 (primary additive 10 wt % in VLDPE film plus 2 wt % Cleanatis M2 (With Amide wax), 5 day test, beef purge inoculum, 40° F.) [%] | Antimicrobial Performance vs. VLDPE Control (percent reduction in microbes), KANCOR CLS @ 2%, Test 3 (primary additive 10 wt % in VLDPE film plus 2 wt % Kancor OxiKan CLS (With Amide wax), 5 day test, beef purge inoculum, 40° F.) [%] | Percent Reduction in Microbes of Test Samples at Day 5 versus the "Additive Controls", None Control, Test 1 (primary additive 10 wt % in VLDPE film, control = VLDPE film, Day 5) [%] | Percent Reduction in Microbes of Test Samples at Day 5 versus the "Additive Controls", Amide wax Erucamide, Test 2 (primary additive 10 wt % in VLDPE with Erucamide, control = VLDPE + Erucamide film, Day 5) [%] | Percent Reduction in Microbes of Test Samples at Day 5 versus the "Additive Controls", Cleanatis M1 @ 2%, Test 4 (primary additive 10 wt % plus Cleanatis M1 2%, control = VLDPE + Cleanatis M1 film, Day 5) | Percent Reduction in Microbes of Test Samples at Day 5 versus the "Additive Controls", Cleanatis M2 @2%, Test 5 (primary additive 10 wt % plus Cleanatis M2 2%, control = VLDPE + Cleanatis M2 film, Day 5) | Percent Reduction in Microbes of Test Samples at Day 5 versus the "Additive Controls", KANCOR CLS @ 2%, Test 3 (primary additive 10 wt % plus KANCOR CLS 2%, control = VLDPE + KANCOR CLS film, Day 5) [%]
C[C@H](O)C(=O)[O-].[Na+] [Purasal S98, Sodium L-lactate] | 0 | 0 | 8.8 | 64.5187 | 92.0567 | 0 | 0 | Growth | Growth | 22.3735
CCCCCCCC/C=C\CCCCCCCCCCCC(N)=O [Erucamide, Cis-13-docosenamide] | 0 |  |  |  |  |  |  |  |  | 
